A short description of series [1]: Chromatographic hydrophobicity index (CHI) log D at pH 7.4. The note with it: for chromatographic logD: reversed-phase HPLC, Acquity BEH C18 column.
Experimental: Chromatographic hydrophobicity index (CHI) log D samples (see below) were analysed using high-performance liquid chromatography (HPLC) with a Shimadzu Nexera X2 HPLC coupled to a Shimadzu SPD-30 MA photodiode array detector (PDA) (Shimadzu, Kyoto, Japan). […] The sample chamber was maintained at 25 °C. Gradient elution was performed, with mobile phase (MP) consisting of ammonium acetate in water (10 mM, pH 7.4) (MP A) and acetonitrile (MP B).
A calibration mix of ten compounds at 10 µg mL^−1 in 1:1 (v/v) water:ACN was used (theophylline, phenyltetrazole, benzimidazole, colchicine, phenyltheophilline, acetophenone, indole, propiophenone, butyrophenone and valerophenone (all Sigma-Aldrich)). Test compounds were prepared at 0.25 mM in 1:1 (v/v) water:ACN. Samples (n = 2 for calibration standards; n = 1 for test compounds) were analysed using UPLC-PDA as described above. Retention times of calibration compounds are used to calculate retention factor (k), which is plotted against literature CHI values for each compound.
Where tr is the retention time of the analyte and t0 is the retention time of an unretained compound
Calculation of chromatographic hydrophobicity index (CHI)
CHI = (𝑘 x slope) − intercept Eqn.4
Where k is the retention factor of the analyte.
Calculation of CHI Log D [1]
Where CHI is the chromatographic hydrophobicity index obtained using Equation 4
For series [2] the following is noted: HLM, ref 14 (THJ-018, THJ-2201), 15 (NNEI, MN-18), 106 (NM-2201), 107 (BIM-2201), 108 (STS-135), 16 (AB-PINACA, 5F-AB-PINACA), 54 (5F-MDMB-PINACA), 69 (AB-FUBINACA), 17 (ADB-FUBINACA), 97 (FDU-PB-22, FUB-PB-22), cited from earlier work; for CLint micr / t1/2: 95 (Cumyl-PICA, 5F-Cumyl-PICA), 109 (5F-APP-PICA, 5F-APP-PINACA; for CLint micr: 73 (5F-AMB-PINACA); for t1/2 / CLint: 57 (AMB-4en-PICA); for t1/2: 73 (AMB-PINACA, 5F-AMB-PINACA).

Series [3] can be described thus: Metabolic stability, pooled human liver microsome incubations. To be noted: pHLM; vs refs 69 (AB-FUBINACA), 54 (5F-MDMB-PINACA).
The subject of series [4] is human hepatocytes (HHeps). To be noted: HHeps (asterisk); ref 13 (JWH-122, MAM-2201, Cl-, Br-, I-JWH-122), 105 (AM1220); cited from earlier work.

`COC(=O)C(NC(=O)c1nn(CCCCF)c2ccccc12)C(C)(C)C` (stereo not shown) [4F-MDMB-BINACA (4), methyl 2-[1-(4-fluorobutyl)-1H-indazole-3-carboxamido]-3,3-dimethylbutanoate] registered a chromatographic logD in series [1] of 4.18.

In series [1], `COC(=O)[C@@H](NC(=O)c1nn(CCCCCF)c2ccccc12)C(C)C` [5F-AMB-PINACA (10), methyl [1-(5-fluoropentyl)-1H-indazole-3-carbonyl]valinate] came in with a chromatographic logD of 4.07. Further, in series [2], the CLint micr is 670 µL/min/mg and the t1/2 was 1.0 min.

The compound `COC(=O)C(NC(=O)c1cn(CCCCCF)c2ccccc12)C(C)(C)C` (stereo not shown) [5F-MDMB-PICA (3), methyl 2-[1-(5-fluoropentyl)-1H-indole-3-carboxamido]-3,3-dimethylbutanoate] had a chromatographic logD in series [1] of 4.06.

As to `COC(=O)C(NC(=O)c1nn(CCCCCF)c2ccccc12)C(C)(C)C` (stereo not shown) [5F-MDMB-PINACA (2), methyl 2-[1-(5-fluoropentyl)-1H-indazole-3-carboxamido]-3,3-dimethylbutanoate], in series [3], the “CLH prediction lower than literature prediction without PPB” value was 4 fold and the “EH prediction lower than literature prediction without PPB” value is on record as 4 fold. Further, in series [1], the chromatographic logD worked out at 4.5. Also, in series [2], the CLint micr was 271 µL/min/mg, the t1/2 is on record as 3.1 min and the CLint was 256.2 mL/min/kg.

Consider `CC(C)C(NC(=O)c1nn(Cc2ccc(F)cc2)c2ccccc12)C(N)=O` (stereo not shown) [AB-FUBINACA (8), N-(1-amino-3-methyl-1-oxobutan-2-yl)-1-(4-fluorobenzyl)-1H-indazole-3-carboxamide], for which, in series [3], the “CLH prediction lower than literature prediction without PPB” value is on record as 20 fold and the “EH prediction lower than literature prediction without PPB” value is reported as 17 fold. This compound had a chromatographic logD in series [1] of 2.81. Further, in series [2], the CLint micr is 11 µL/min/mg, the t1/2 is on record as 62.6 min and the CLint was 10.5 mL/min/kg.

On to `CC(C)C(NC(=O)c1nn(CC2CCCCC2)c2ccccc12)C(N)=O` (stereo not shown) [AB-[…] (11), N-[1-amino-3-methyl-1-oxobutan-2-yl]-1-(cyclohexylmethyl)-1H-indazole-3-carboxamide], for which the chromatographic logD in series [1] turned out to be 3.71.

In the case of `CN1CCCCC1Cn1cc(C(=O)c2cccc3ccccc23)c2ccccc21` (stereo not shown) [AM1220], in series [4], the CLint is 169 mL/min/kg and the t1/2 is listed as 3.7 min.

Compound `C=CCCCn1cc(C(=O)NC(C(=O)OC)C(C)C)c2ccccc21` (stereo not shown) [AMB-4en-PICA (7), methyl 3-methyl-2-[(1-pent-4-enylindole-3-carbonyl)amino] butanoate] came in with a chromatographic logD in series [1] of 3.97. Moreover, in series [2], the t1/2 is reported as 2.1 min and the CLint was 291 mL/min/kg.

With `COC(=O)[C@@H](NC(=O)c1cn(CC2CCCCC2)c2ccccc12)C(C)C` [AMB-CHMICA (9), methyl [1-(cyclohexylmethyl)-1H-indole-3-carbonyl]valinate], the chromatographic logD in series [1] was found to be 4.77.

`COC(=O)[C@@H](NC(=O)c1nn(Cc2ccc(F)cc2)c2ccccc12)C(C)C` [AMB-FUBINACA (1), methyl [1-(4-fluorobenzyl)-1H-indazole-3-carbonyl]valinate]: the chromatographic logD in series [1] was 4.28.

Consider `Cc1ccc(C(=O)c2cn(CCCCCBr)c3ccccc23)c2ccccc12` [Br-JWH-122], for which, in series [4], the CLint is 497 mL/min/kg and the t1/2 is given as 2.49 min.

Regarding `Cc1ccc(C(=O)c2cn(CCCCCCl)c3ccccc23)c2ccccc12` [Cl-JWH-122], in series [4], the CLint is 502 mL/min/kg and the t1/2 was 2.46 min.

`C=CCCCn1cc(C(=O)NC(C(=O)OC)C(C)(C)C)c2ccccc21` (stereo not shown) [MDMB-4en-PICA (12), methyl 3,3-dimethyl-2-[1-(pent-4-en-1-yl)-1H-indole-3-carboxamido]butanoate] returned a chromatographic logD in series [1] of 4.4.

For the compound “methyl 2-[1-(5-fluoropentyl)-1H-indazole-3-carboxamido]-3,3-dimethylbutanoate [MDMB-FUBINACA (6)]”, the “Experimental Log D7.4” value in series [1] (CHI log D, determined for the (S)-enantiomer, n = 1) is given as 4.69.

(Values after publication PMC7961380, “A Systematic Study of the In Vitro Pharmacokinetics and Estimated Human In Vivo Clearance of Indole and Indazole-3-Carboxamide Synthetic Cannabinoid Receptor Agonists Detected on the Illicit Drug Market” (Molecules, 2021).)
